Tests used:
[1] = system: Eimeria tenella parasites; assay: Eimeria tenella uracil uptake in infected MDBK cells; type: cell-based; conditions: uracil uptake as indicator of parasite viability
Protocol: (§1) Compound C was tested against Eimeria tenella parasites in two separate assay procedures, as described (i) in Inhibition of the development of Eimeria tenella in cultured bovine kidney cells by a soluble factor produced by peripheral blood lymphocytes from immune chickens, J. M. Bumstead, S. J. Topham, F. M. Tomley, Parasitology, 117.39-47 (1998) and (ii) Eimeria tenella: Parasite-specific incorporation of 3H Uracil as a quantitative measure of intracellular development, Schmatz, D. M., Crane, M. S., is Murray, P. K., Journal of Protozology (1986) 33:109-114.
In the second assay using infected MDBK cells, compound C caused a significant decrease in the uptake of uracil by the parasites (a recognised indicator of parasite viability) at concentrations greater than 5 μM.

Plasmodium falciparum = Plasmodium falciparum growth inhibition in human red blood cells (parasite lactate dehydrogenase assay); type: cell-based; conditions: for IC50: Plasmodium falciparum, Erythrocyte, at 48 hours, P. falciparum in human red blood cells, read-out: 50% inhibitory concentration (IC50) for parasite growth
Protocol: Plasmodium falciparum was maintained in human red blood cells and the inhibitory effects of racemic thiolactomycin, or compound C on its growth was measured, employing assay techniques as described by Makkler, M. T., Ries, J. M., Williams, J. A., Bancroft, J. E., Piper, R. C., Gibbins, B. L. and Hinrichs, D. J., Parasite lactate dehydrogenase as an assay for Plasmodium falciparum drug sensitivity. Am. J. Trop. Med. Hyg. 48, 739-41 (1993).

[2] = system: Eimeria tenella parasites; assay: Eimeria tenella invasion of MDBK cells after preincubation of parasites with compound; type: cell-based
Protocol: as §1
Preincubation of compound C with parasites caused a significant reduction in invasion of Madin-Darby Bovine Kidney (MDBK) cells at concentrations of 10 μM and above.

[3] = system: fatty acid synthesis in Trypanosoma brucei; conditions: Morita et al., Science 288: 140-143 (2000); read-out: IC50 for inhibition of fatty acid synthesis in Trypanosoma brucei; cited from earlier work

| SMILES | concentrations causing a significant decrease in the uptake of uracil by the parasites [1] | IC50 (Plasmodium falciparum) [µM] | times more active than racemic thiolactomycin in inhibiting growth of Plasmodium falciparum (Plasmodium falciparum; ratio of IC50 values at 48 hours) | concentrations causing a significant reduction in invasion of Madin-Darby Bovine Kidney (MDBK) cells [2] [µM] | IC50 [3] [µM] |
| --- | --- | --- | --- | --- | --- |
| CC(C)=CCC/C(C)=C/CC1(C)SC(=O)C(C)=C1O (stereo not drawn) [Compound C] | greater than 5 μM | 0.5 | approximately 80 times | ≥ 10 | – |
| C=C/C(C)=C/C1(C)SC(=O)C(C)=C1O (racemic) [Racemic thiolactomycin, Thiolactomycin, reference compound] | – | 40 | – | – | ~150 |
